In this experiment the target is T1, Human MC1R (Homo sapiens, UniProt Q01726).
T1 construct: endogenous in cells; host or cells: human melanoma cell line HBL
Description: MCR agonist measurement (cAMP measurement), human MC1R agonist activity in human melanoma cell line HBL. The class given is cell-based. The following applies: HBL cells; for EC50: 37° C. for 30 minutes, intracellular cAMP by fluorescence method; for Human MC1R IA %: Intrinsic Activity, vehicle cAMP = 0%, αMSH at 10^-6 M = 100%. The method, then: (1) Method for Culturing Cells
Human MC1R agonist activity measurement was carried out by using human melanoma cell line HBL. Culture of HBL: F-10 Nutrient Mixture containing 10% FCS and Penicillin-streptomycin was used in the culture.
(2) cAMP Assay and Data Calculation
Each compound solution having each concentration was mixed with cAMP assay buffer (HBSS (Hank's Balanced Salt Solution) containing 10 mM HEPES and 0.1% BSA), and dispensed into 96 well plate. HBL was suspended in cAMP assay buffer containing 0.5 mM IBMX so that the concentrate became 5×10^4/mL, dispensed into the above 96 well plate, then mixed, left to stand at 37° C. for 30 minutes, and then the intracellular […] concentration was measured by fluorescence method using Envision (ex. 320 nm, em. 590 nm and 665 nm).

T1 sequence (Q01726 whole entry): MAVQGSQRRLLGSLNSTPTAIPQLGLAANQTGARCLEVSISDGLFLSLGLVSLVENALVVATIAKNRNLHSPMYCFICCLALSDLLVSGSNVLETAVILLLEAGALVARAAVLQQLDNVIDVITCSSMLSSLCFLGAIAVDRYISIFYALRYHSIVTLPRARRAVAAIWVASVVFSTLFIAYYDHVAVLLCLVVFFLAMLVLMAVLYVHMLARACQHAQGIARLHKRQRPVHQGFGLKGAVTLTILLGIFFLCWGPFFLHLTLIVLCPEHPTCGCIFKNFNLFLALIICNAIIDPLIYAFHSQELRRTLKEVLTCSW

Regarding `COc1ccc([C@@H]2CN(C3CCCC3)C[C@@]2(F)C(=O)N2C[C@H](c3ccc(C(F)(F)F)cc3N3CCC(C(=O)O)CC3)[C@@H](C(C)(C)O)C2)cc1.Cl.Cl` [Example 228, 1-{2-[(3S,4R)-1-{[(3R,4R)-1-cyclopentyl-3-fluoro-4-(4-methoxyphenyl)pyrrolidin-3-yl]carbonyl}-4-(2-hydroxypropan-2-yl)pyrrolidin-3-yl]-5-(trifluoromethyl)phenyl}piperidine-4-carboxylic acid dihydrochloride], the half-maximal effective concentration (EC50) (usually the concentration giving half of the maximal effect) was 11 nM and the “Human MC1R IA %” value turned out to be 77%.
As to `COC[C@@]1(F)CN(C(=O)[C@]2(F)CN([C@H]3CC[C@H](OC)CC3)C[C@H]2c2ccc(OC)cc2)C[C@@H]1c1ccc(C(F)(F)F)cc1N1CCC(C(=O)O)CC1` [Example 120], the half-maximal effective concentration (EC50) amounted to 8.8 nM and the “Human MC1R IA %” value was determined as 109%.
As to `COC[C@H]1CN(C(=O)[C@]2(F)CN(c3ccnc(C)c3)C[C@H]2c2ccc(OC)cc2)C[C@@H]1c1ccc(C(F)(F)F)cc1N1CCC(C(=O)O)CC1` [Example 59], it took 1.2 nM to reach a half-maximal effect (EC50) and the “Human MC1R IA %” value is 98%.
For the compound `COc1ccc([C@@H]2CN(C(C)(C)C)C[C@@]2(F)C(=O)N2CCC(c3ccc(C(F)F)cc3N3CCC(C(=O)O)CC3)CC2)cc1` [Example 198], the concentration for a half-maximal effect (EC50) was 45 nM and the “Human MC1R IA %” value is listed as 66%.
For the compound `COc1ccc([C@@H]2CN(C3CCCC3)C[C@@]2(F)C(=O)N2CC(c3ccc(C(F)(F)F)cc3N3CCC(C(=O)O)CC3)C(F)(F)C2)cc1` (single isomer, unassigned) [Example 294], the EC50 is 804 nM and the “Human MC1R IA %” value was 81%.
In the same order, the values of `COc1ccc([C@@H]2CN(C(C)(C)C)C[C@@]2(F)C(=O)N2CCC(c3ccc(C(F)(F)F)cc3OCCCc3noc(=O)[nH]3)CC2)cc1.Cl` [Example 295, 3-{3-[2-(1-{[(3R,4R)-1-tert-butyl-3-fluoro-4-(4-methoxyphenyl)pyrrolidin-3-yl]carbonyl}piperidin-4-yl)-5-(trifluoromethyl)phenoxy]propyl}-1,2,4-oxadiazole-5(4H)-one hydrochloride] are 31 nM and 91%.
`COC[C@@H]1C[C@@H](c2ccc(C(F)(F)F)cc2N2CCC(C(=O)O)CC2)CN1C(=O)[C@]1(F)CN(c2ccnc(C)c2)C[C@H]1c1ccc(OC)cc1` [Example 68]: the EC50 is 0.94 nM and the “Human MC1R IA %” value is 111%.
In the same order, the values of `COc1ccc([C@@H]2CN(C3CCOCC3)C[C@@]2(F)C(=O)N2CC[C@@H](c3ccc(C(F)(F)F)cc3N3CCC(C(=O)O)CC3)C2)cc1` [Example 215] are 14 nM and 59%.
On to `CCO[C@H]1CC[C@@H](N2C[C@@H](c3ccc(OC)cc3)[C@](F)(C(=O)N3C[C@H](COC)[C@@H](c4ccc(C(F)(F)F)cc4N4CCC(C(=O)O)CC4)C3)C2)CC1` [Example 119], for which the 50% effective concentration (EC50) is 15 nM and the “Human MC1R IA %” value stood at 53%.
Turning to `COc1ccc([C@@H]2CN(C3CCOC3)C[C@@]2(F)C(=O)N2CCC(c3ccc(C(F)(F)F)cc3N3CCC(C(=O)O)CC3)CC2)cc1` (stereo partly shown) [Example 290], a half-maximal response (EC50) required 115 nM and the “Human MC1R IA %” value amounted to 69%.
With `COC[C@@H]1C[C@@H](c2ccc(C(F)(F)F)cc2N2CCC(C(=O)O)CC2)CN1C(=O)[C@]1(F)CN(C2CCCCC2)C[C@H]1c1ccc(OC)cc1` [Example 138], the EC50 worked out at 0.98 nM and the “Human MC1R IA %” value is 111%.
In the same order, the values of `COc1ccc([C@@H]2CN(C(C)(C)C)C[C@@]2(F)C(=O)N2C[C@H](C(=O)O)[C@@H](c3ccc(C(F)(F)F)cc3N3CCC(C(=O)OC(C)(C)C)CC3)C2)cc1` [Example 223, (3R,4S)-4-{2-[4-(tert-butoxycarbonyl)piperidin-1-yl]-4-(trifluoromethyl)phenyl}-1-{[(3R,4R)-1-tert-butyl-3-fluoro-4-(4-methoxyphenyl)pyrrolidin-3-yl]carbonyl}pyrrolidin-3-carboxylic acid] are 90 nM and 71%.
With `COc1ccc([C@@H]2CN(C3CCN(C(CF)CF)CC3)C[C@@]2(F)C(=O)N2CC[C@@H](c3ccc(F)cc3N3CCC(C(=O)O)CC3)C2)cc1` [Example 220], the EC50 turned out to be 2.8 nM and the “Human MC1R IA %” value is reported as 75%.
Regarding `COc1ccc([C@@H]2CN(C(C)(C)C)C[C@@]2(F)C(=O)N2CCC(c3ccc(C(F)(F)F)cc3N3CCC(C(=O)N(C)C)CC3)CC2)cc1` [Example 234], it took 7.3 nM to reach a half-maximal effect (EC50) and the “Human MC1R IA %” value is on record as 105%.
`CCO[C@H]1CC[C@H](N2C[C@@H](c3ccc(OC)cc3)[C@](OC)(C(=O)N3C[C@H](c4ccc(C(F)(F)F)cc4N4CCC(C(=O)O)CC4)[C@@](F)(COC)C3)C2)CC1` [Example 141]: the EC50 was determined as 3.6 nM and the “Human MC1R IA %” value worked out at 105%.
On to `COc1ccc([C@@H]2CN(C3CCN(C(CF)CF)CC3)C[C@@]2(F)C(=O)N2CC[C@@H](c3ccc(C(F)(F)F)cc3N3CCC(C(=O)O)CC3)C2)cc1` [Example 219], for which the EC50 is 6.7 nM and the “Human MC1R IA %” value is 104%.
On to `COc1ccc([C@@H]2CN(C3CCOC3)C[C@@]2(F)C(=O)N2CCC(c3ccc(C(F)(F)F)cc3N3CCC(C(=O)O)CC3)CC2)cc1` (stereo partly shown) [Example 289], for which the EC50 turned out to be 124 nM and the “Human MC1R IA %” value was determined as 55%.
Consider `COC[C@@H]1C[C@@H](c2ccc(C(F)(F)F)cc2N2CCC(C(=O)O)CC2)CN1C(=O)[C@]1(F)CN([C@H]2CC[C@H](OC)CC2)C[C@H]1c1ccc(OC)cc1` [Example 135], for which the EC50 amounted to 0.47 nM and the “Human MC1R IA %” value was found to be 96%.
In the same order, the values of `COc1ccc([C@@H]2CN(C(C)(C)C)C[C@@]2(F)C(=O)N2C[C@H](CO)[C@@H](c3ccc(C(F)(F)F)cc3N3CCC(C(=O)O)CC3)C2)cc1.Cl.Cl` [Example 224, 1-{2-[(3S,4R)-1-{[(3R,4R)-1-tert-butyl-3-fluoro-4-(4-methoxyphenyl)pyrrolidin-3-yl]carbonyl}-4-(hydroxymethyl)pyrrolidin-3-yl]-5-(trifluoromethyl)phenyl}piperidine-4-carboxylic acid dihydrochloride] are 11 nM and 109%.
In the case of `COC[C@@H]1C[C@@H](c2ccc(C(F)(F)F)cc2N2CCC(C(=O)O)CC2)CN1C(=O)[C@]1(OC)CN([C@H]2CC[C@H](OC(C)C)CC2)C[C@H]1c1ccc(OC)cc1` [Example 160], the EC50 is 0.67 nM and the “Human MC1R IA %” value is recorded as 106%.
`COC[C@H]1CN(C(=O)[C@]2(F)CN([C@H]3CC[C@H](OC)CC3)C[C@H]2c2ccc(OC)cc2)C[C@@H]1c1ccc(C(F)(F)F)cc1N1CCC(C(=O)O)CC1` [Example 99]: the EC50 is 4.7 nM and the “Human MC1R IA %” value is listed as 117%.
Take `COC[C@H]1CN(C(=O)[C@]2(OC)CN(C3CCCC3)C[C@H]2c2ccc(OC)cc2)C[C@@H]1c1ccc(C(F)(F)F)cc1N1CCC(C(=O)O)CC1` [Example 125]: a half-maximal effect (EC50) was put at 24 nM and the “Human MC1R IA %” value is given as 74%.
As to `COC[C@H]1CN(C(=O)[C@]2(F)CN(C3CCCC3)C[C@H]2c2ccc(OC)cc2)C[C@@H]1c1ccc(C(F)(F)F)cc1N1CCC(C(=O)N2CCC[C@@H]2C(=O)O)CC1` [Example 270], the EC50 was 5.6 nM and the “Human MC1R IA %” value came out at 82%.
